Measurements reported in ChEMBL document CHEMBL5042510, “Structure-Guided Discovery of Aminoquinazolines as Brain-Penetrant and Selective LRRK2 Inhibitors” (J Med Chem, 2022).

Columns and labels:
[1] = Total plasma clearance in Wistar Han rat at 0.1 mg/kg, iv by LC-MS/MS analysis; type: ADME, organism-based
[2] = Intrinsic clearance in rat hepatocytes at 0.3 uM incubated for 90 mins by LC/MS/MS analysis; type: ADME, cell-based, Hepatocyte; conditions: read-out: CLH
[3] = Intrinsic clearance in human hepatocytes at 0.3 uM incubated for 90 mins by LC/MS/MS analysis; type: ADME, cell-based, Hepatocyte; conditions: read-out: CLH
[4] = biological target: Voltage-gated inwardly rectifying potassium channel KCNH2 (Homo sapiens, UniProt Q12809); test: Inhibition of human ERG by voltage clamp assay; type: toxicity
[5] = test system: rat Mdr1a (P-gp); test: Apparent permeability from apical to basolateral side in rat Mdr1a-transfected pig LLC-PK1 cells at 0.1 to 1 uM measured after 3 hrs by LC/MS/MS analysis; type: ADME, cell-based, Sus scrofa; conditions: dose 0.1-1 µM
[6] = test system: Leucine-rich repeat serine/threonine-protein kinase 2 (Homo sapiens), Q5S007 [G2019S]; test: Inhibition of LRRK2 […] mutant expressed in human SH-SY5Y cells assessed as unbound concentration required for inhibition of phosphorylation of LRRK2 at Ser935 residue incubated for 90 mins by MSD assay; type: cell-based
[7] = Intrinsic clearance in Wistar Han rat at 0.1 mg/kg, iv by LC-MS/MS analysis; type: ADME, organism-based; conditions: in vivo
[8] = test system: rat Mdr1a (P-gp); test: Efflux ratio of apparent permeability across basolateral to apical side over apical to basolateral side in rat Mdr1a-transfected pig LLC-PK1 cells at 0.1 to 1 uM measured after 3 hrs by LC/MS/MS analysis; type: ADME, cell-based, Sus scrofa; conditions: dose 0.1-1 µM
[9] = MRT in Wistar Han rat at 0.1 mg/kg, iv by LC-MS/MS analysis; type: ADME, organism-based; conditions: in vivo
[10] = Unbound brain-to-plasma concentration ratio in rat at 2.5 uM incubated for 4 hrs by equilibrium dialysis method; type: ADME, cell-free; conditions: brain and plasma (unbound), read-out: K(p,uu,brain)
[11] = Unbound brain-to-plasma concentration ratio in non-human primates administered orally and measured after 120 mins by LC/MS/MS analysis; type: ADME; conditions: po, read-out: K(p,uu,brain)
[12] = test system: human MDR1 (P-gp); test: Efflux ratio of apparent permeability across basolateral to apical side over apical to basolateral side in human MDR1-transfected dog MDCKII-MDR1 cells at 0.1 to 1 uM measured after 3 hrs by LC/MS/MS analysis; type: ADME, cell-based, Canis lupus familiaris; conditions: MDCK-MDR1, dose 0.1-1 µM
[13] = biological target: Leucine-rich repeat serine/threonine-protein kinase 2 (Homo sapiens, UniProt Q5S007, G2019S); test: Inhibition of recombinant N-terminal GST-fused LRRK2 […] mutant (970 to 2527 residues) (unknown origin) preincubated with enzyme for 15 mins followed by fluorescein-labeled LRRKtide peptide substrate and ATP addition for 90 mins by TR-FRET assay
[14] = Lipophilicity, logD of the compound by HPLC analysis; type: physicochemical
[15] = Total plasma clearance in Wistar Han rat at 2 mg/kg, iv by LC-MS/MS analysis; type: ADME, organism-based
[16] = MRT in Wistar Han rat at 2 mg/kg, iv by LC-MS/MS analysis; type: ADME, organism-based; conditions: in vivo
[17] = Intrinsic clearance in dog hepatocytes at 0.3 uM incubated for 90 mins by LC/MS/MS analysis; type: ADME, cell-based, Canis lupus familiaris, Hepatocyte; conditions: read-out: CLH
[18] = Oral bioavailability in Wistar Han rat at 10 mg/kg by LC-MS/MS analysis; type: ADME, organism-based; conditions: in vivo
[19] = Intrinsic clearance in Wistar Han rat at 2 mg/kg, iv by LC-MS/MS analysis; type: ADME, organism-based; conditions: in vivo
[20] = test system: mouse Bcrp; test: Efflux ratio of apparent permeability across basolateral to apical over apical to basolateral side in mouse Bcrp-transfected dog MDCK-II cells at 0.1 to 1 uM measured after 3 hrs by LC/MS/MS analysis; type: ADME, cell-based, Canis lupus familiaris; conditions: dose 0.1-1 µM
[21] = Dissociation constant, pKa of the compound; type: physicochemical
[22] = biological target: Leucine-rich repeat serine/threonine-protein kinase 2 (Homo sapiens) (UniProt Q5S007); test: Ex vivo inhibition of LRRK2 in human PBMC assessed as unbound concentration required for reduction in LRRK2 phosphorylation at Ser935 residue incubated for 90 mins by MSD assay; type: cell-based
[23] = Intrinsic clearance in Beagle dog at 2 mg/kg, iv by LC-MS/MS analysis; type: ADME, organism-based, Canis lupus familiaris; conditions: in vivo
[24] = MRT in Beagle dog at 2 mg/kg, iv by LC-MS/MS analysis; type: ADME, organism-based, Canis lupus familiaris; conditions: in vivo
[25] = Total plasma clearance in Beagle dog at 2 mg/kg, iv by LC-MS/MS analysis; type: ADME, organism-based, Canis lupus familiaris
[26] = Oral bioavailability in Beagle dog by LC-MS/MS analysis; type: ADME, organism-based, Canis lupus familiaris; conditions: in vivo

Chain of Leucine-rich repeat serine/threonine-protein kinase 2 (Homo sapiens), Q5S007 [G2019S] (Q5S007 whole entry G2019S): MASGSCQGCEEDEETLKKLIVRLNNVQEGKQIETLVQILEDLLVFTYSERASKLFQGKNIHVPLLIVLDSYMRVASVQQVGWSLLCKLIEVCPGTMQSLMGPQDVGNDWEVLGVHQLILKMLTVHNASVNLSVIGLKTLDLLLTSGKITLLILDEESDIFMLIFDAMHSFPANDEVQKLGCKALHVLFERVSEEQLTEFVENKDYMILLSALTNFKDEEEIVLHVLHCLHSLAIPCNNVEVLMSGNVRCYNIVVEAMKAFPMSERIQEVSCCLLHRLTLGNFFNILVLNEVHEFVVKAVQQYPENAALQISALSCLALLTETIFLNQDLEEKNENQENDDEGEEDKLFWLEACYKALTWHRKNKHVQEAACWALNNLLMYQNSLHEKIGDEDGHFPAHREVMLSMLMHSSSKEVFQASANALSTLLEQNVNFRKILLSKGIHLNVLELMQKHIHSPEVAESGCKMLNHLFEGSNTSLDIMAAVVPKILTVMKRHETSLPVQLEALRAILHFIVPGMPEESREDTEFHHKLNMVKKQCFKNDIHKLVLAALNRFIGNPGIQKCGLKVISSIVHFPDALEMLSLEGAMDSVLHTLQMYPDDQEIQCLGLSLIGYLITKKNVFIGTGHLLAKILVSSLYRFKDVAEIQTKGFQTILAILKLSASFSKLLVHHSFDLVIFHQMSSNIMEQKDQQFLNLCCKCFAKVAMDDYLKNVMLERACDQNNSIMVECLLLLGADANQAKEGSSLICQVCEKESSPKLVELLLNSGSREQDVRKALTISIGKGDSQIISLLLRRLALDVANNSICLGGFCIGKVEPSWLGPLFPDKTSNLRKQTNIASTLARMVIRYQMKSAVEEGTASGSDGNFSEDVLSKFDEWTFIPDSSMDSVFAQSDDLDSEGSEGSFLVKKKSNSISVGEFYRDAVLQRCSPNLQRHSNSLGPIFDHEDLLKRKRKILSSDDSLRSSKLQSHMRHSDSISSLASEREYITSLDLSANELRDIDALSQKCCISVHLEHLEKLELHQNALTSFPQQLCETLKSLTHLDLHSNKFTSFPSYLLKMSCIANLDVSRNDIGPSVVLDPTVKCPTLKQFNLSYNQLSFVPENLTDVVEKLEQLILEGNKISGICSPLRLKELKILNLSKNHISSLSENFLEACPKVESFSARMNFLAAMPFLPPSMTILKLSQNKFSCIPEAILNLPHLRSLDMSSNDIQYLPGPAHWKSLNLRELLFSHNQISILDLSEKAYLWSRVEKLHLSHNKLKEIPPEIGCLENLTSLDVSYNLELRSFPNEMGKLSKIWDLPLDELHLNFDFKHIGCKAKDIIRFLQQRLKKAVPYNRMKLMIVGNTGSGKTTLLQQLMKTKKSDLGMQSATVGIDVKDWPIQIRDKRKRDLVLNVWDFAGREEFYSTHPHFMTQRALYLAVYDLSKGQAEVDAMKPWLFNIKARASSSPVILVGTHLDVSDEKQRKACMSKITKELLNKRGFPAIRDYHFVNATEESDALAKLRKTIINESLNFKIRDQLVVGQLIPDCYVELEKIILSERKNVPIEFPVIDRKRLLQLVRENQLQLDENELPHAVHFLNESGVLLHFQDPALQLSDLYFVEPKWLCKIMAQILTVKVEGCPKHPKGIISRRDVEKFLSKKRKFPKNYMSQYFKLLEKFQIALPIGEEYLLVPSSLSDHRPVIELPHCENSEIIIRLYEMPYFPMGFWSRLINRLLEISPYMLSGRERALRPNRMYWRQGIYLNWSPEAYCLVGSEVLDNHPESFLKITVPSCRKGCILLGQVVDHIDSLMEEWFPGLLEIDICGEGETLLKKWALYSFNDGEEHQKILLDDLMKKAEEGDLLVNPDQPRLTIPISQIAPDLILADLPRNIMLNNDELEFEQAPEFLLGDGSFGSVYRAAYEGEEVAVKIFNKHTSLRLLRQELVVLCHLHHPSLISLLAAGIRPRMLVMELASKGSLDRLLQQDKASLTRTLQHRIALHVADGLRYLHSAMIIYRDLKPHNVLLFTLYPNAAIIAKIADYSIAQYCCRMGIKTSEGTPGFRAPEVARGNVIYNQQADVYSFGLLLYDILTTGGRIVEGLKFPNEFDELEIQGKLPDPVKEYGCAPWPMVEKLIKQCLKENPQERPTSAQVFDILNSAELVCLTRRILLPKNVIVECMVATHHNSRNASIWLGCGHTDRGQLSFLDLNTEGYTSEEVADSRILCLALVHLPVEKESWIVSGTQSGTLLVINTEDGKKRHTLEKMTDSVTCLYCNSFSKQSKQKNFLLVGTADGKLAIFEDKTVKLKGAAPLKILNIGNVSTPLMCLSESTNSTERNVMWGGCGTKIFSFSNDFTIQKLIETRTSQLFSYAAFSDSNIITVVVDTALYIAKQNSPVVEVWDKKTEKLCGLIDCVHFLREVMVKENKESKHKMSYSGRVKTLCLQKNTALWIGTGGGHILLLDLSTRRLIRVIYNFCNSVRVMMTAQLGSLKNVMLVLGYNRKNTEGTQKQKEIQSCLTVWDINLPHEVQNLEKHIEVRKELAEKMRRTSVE
Chain of Leucine-rich repeat serine/threonine-protein kinase 2 (Q5S007 whole entry G2019S, the tested form may be a part): as the sequence (Q5S007 whole entry G2019S) above
Chain of Voltage-gated inwardly rectifying potassium channel KCNH2 (Q12809 whole entry): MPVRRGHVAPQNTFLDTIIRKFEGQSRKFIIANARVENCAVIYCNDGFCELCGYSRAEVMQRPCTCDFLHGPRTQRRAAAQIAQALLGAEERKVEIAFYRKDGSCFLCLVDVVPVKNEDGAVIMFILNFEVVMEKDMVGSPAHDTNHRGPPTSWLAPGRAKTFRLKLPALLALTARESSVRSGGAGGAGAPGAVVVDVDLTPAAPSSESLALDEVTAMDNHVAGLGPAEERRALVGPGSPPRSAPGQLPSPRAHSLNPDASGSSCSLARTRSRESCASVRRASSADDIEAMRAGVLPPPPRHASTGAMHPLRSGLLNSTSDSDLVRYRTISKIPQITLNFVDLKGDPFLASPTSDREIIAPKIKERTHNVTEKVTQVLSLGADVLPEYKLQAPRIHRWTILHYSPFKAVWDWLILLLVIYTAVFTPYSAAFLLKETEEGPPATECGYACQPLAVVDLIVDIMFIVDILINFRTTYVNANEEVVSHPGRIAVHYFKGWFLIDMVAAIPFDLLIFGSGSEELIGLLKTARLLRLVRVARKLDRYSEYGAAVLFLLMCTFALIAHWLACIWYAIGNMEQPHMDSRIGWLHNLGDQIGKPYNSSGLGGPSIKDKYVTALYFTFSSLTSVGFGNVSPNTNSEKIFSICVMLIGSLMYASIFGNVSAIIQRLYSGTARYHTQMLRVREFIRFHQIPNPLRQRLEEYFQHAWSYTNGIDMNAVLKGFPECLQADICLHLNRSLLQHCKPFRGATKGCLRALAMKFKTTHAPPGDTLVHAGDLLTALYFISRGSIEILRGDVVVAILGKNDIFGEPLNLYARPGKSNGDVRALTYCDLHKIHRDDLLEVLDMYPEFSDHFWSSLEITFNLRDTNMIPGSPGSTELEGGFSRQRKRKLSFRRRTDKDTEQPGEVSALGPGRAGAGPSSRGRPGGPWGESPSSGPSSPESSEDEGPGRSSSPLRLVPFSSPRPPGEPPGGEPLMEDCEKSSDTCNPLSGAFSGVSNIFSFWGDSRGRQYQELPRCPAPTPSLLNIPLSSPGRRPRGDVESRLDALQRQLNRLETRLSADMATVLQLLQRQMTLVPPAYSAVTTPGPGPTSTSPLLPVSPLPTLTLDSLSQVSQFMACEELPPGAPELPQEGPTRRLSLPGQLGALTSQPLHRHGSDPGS
Chain of Leucine-rich repeat serine/threonine-protein kinase 2 (Homo sapiens) (Q5S007 whole entry): as the sequence (Q5S007 whole entry G2019S) above, with S2019G counted along it

SMILES | clearance [1] [mL/min/kg] | CLint scaled at 0.3 µM [2] [mL/min/kg] | CLint scaled at 0.3 µM [3] [mL/min/kg] | IC50 [4] [nM] | Papp A→B at 3 h, up to 1 µM [5] [×10⁻⁶ cm/s] | fIC50 [6] [nM] | CL [7] [mL/min/kg] | efflux ratio at 3 h, up to 1 µM [8] | MRT [9] [h] | IC50 [13] [nM] | also measured
Clc1cc2cnc(Nc3cnn(C4CC4)c3Cl)nc2cc1N1CCN(C2COC2)CC1 | 42 | 168 | 63 | 24000 | 33 | 71 | 1800 | 0.9 | 1.1 | – | –
CCNc1nc(Nc2cc(F)c(C(=O)N3CCOCC3)cc2OC)ncc1C(F)(F)F | – | – | – | – | – | – | – | – | – | – | Kp uu at 4 h, 2.5 µM [10]: 0.5; Kp uu at 2 h [11]: 0.6; efflux ratio at 3 h, up to 1 µM [12]: 0.9
FC(F)Cn1ncc(Nc2ncc3cc(Cl)c(C4CCN(C5COC5)CC4F)cc3n2)c1Cl (stereo not given) | 18 | 336 | 212 | – | 33 | 7.4 | 755 | 1 | 1.8 | < 0.6 | –
Cc1c(Nc2ncc3ccc(C4(C#N)CC4)cc3n2)cnn1C1CCOCC1 | – | – | – | – | 34 | 19 | – | 6.4 | – | 0.7 | –
Cc1c(Nc2ncc3ccc(C4(C#N)CC45CC5)cc3n2)cnn1C1CCOCC1 (stereo not given) | – | – | – | – | 34 | 6.9 | – | 7.2 | – | < 0.6 | –
Cc1c(Nc2ncc3ccc(N4C(=O)OC[C@@H]4C)cc3n2)cnn1C1CCOCC1 | 9 | 17 | < 6 | – | 27 | 3.2 | 26 | 35 | 1.6 | < 0.6 | logD [14]: 1.4
FC1CN(C2CCOC2)CCC1c1cc2nc(Nc3cnn(C4CC4(F)F)c3Cl)ncc2cc1Cl (stereo not given) | 22 | 2640 | 471 | 35000 | – | 2.5 | 2494 | – | 3.3 | < 0.6 | –
FC1CN(C2COCC2F)CCC1c1cc2nc(Nc3cnn(C4CC4(F)F)c3Cl)ncc2cc1Cl (stereo not given) | 12 | 956 | 720 | 8600 | 23 | 1.9 | 2771 | 1.6 | 4.8 | < 0.6 | –
FC1CN(C2COC2)CCC1c1cc2nc(Nc3cnn(C4CC4)c3Cl)ncc2cc1Cl (stereo not given) | – | 329 | 175 | 14000 | 32 | 4.3 | – | 1.3 | – | < 0.6 | clearance [15]: 18 mL/min/kg; Kp uu at 4 h, 2.5 µM [10]: 0.5; MRT [16]: 3.8 h; CLint scaled at 0.3 µM [17]: 1300 mL/min/kg; bioavailability [18]: 54%; CL [19]: 1200 mL/min/kg; efflux ratio at 3 h, up to 1 µM [20]: 1.3
FC1CN(C2COC2)CCC1c1cc2nc(Nc3cnn(C4CC4(F)F)c3Cl)ncc2cc1Cl (stereo not given) | 20 | 210 | 186 | 18300 | 31 | 6.1 | 1545 | 1.2 | 2.7 | < 0.6 | –
Cc1c(Nc2ncc3ccc(C4CCN(C5COC5)CC4)cc3n2)cnn1C1CCOCC1 | – | – | – | – | – | – | – | – | – | 6800 | –
Cc1c(Nc2ncc3cccc(C4CC4)c3n2)cnn1C1CCOCC1 | 34 | 898 | 162 | – | 36 | 31 | 1219 | 0.65 | 0.6 | 1 | logD [14]: 2.7
Clc1cc2cnc(Nc3cnn(C4CC4)c3Cl)nc2cc1C1CCN(C2COC2)CC1 | 19 | 464 | 57 | 4600 | 26 | 4.8 | 1025 | 0.5 | 1.5 | < 0.6 | efflux ratio at 3 h, up to 1 µM [20]: 0.6
F[C@@H]1CNCC[C@H]1c1cc2nc(Nc3cnn([C@@H]4CC4(F)F)c3Cl)ncc2cc1Cl | 22 | – | – | 570 | – | – | 1890 | – | 1.8 | – | pKa [21]: 7.79; fIC50 [22]: 9 nM
CNc1nc(Nc2cn(C(C)(C)C#N)nc2C)ncc1C(F)(F)F [DNL-201] | – | – | – | – | – | – | – | – | – | – | Kp uu at 4 h, 2.5 µM [10]: 0.6; Kp uu at 2 h [11]: 0.46; efflux ratio at 3 h, up to 1 µM [12]: 0.8
Cc1c(Nc2ncc3cc(Cl)c(C4CCN(C5COC5)CC4)cc3n2)cnn1C1CC1 | – | 457 | 49 | 15000 | 35 | 9.9 | – | 3 | – | 0.65 | clearance [15]: 14 mL/min/kg; Kp uu at 4 h, 2.5 µM [10]: 0.2; CL [23]: 477 mL/min/kg; MRT [24]: 2 h; MRT [16]: 2.1 h; CLint scaled at 0.3 µM [17]: 294 mL/min/kg; bioavailability [18]: 26%; clearance [25]: 23 mL/min/kg; CL [19]: 260 mL/min/kg; efflux ratio at 3 h, up to 1 µM [20]: 4.2; bioavailability [26]: 38%
Cc1c(Nc2ncc3ccc(-c4ccn[nH]4)cc3n2)cnn1C1CCOCC1 | – | – | – | – | – | 114 | – | – | – | 1.7 | –
N#CC1(c2ccc3cnc(Nc4cnn(C5CCOCC5)c4Cl)nc3c2)CC12CC2 (stereo not given) | – | 1960 | 405 | – | 31 | 1.7 | – | 0.9 | – | < 0.08 | –
c1cc(C2CC2)c2nc(Nc3cnn(C4CCOCC4)c3)ncc2c1 | – | – | – | – | – | 90 | – | – | – | 15 | –
